In patent US9290511B2, “Thieno-pyrimidines, useful as potassium channel inhibitors” (XENTION LIMITED, priority 2011, dated 2016):
pIC50: −log10 of the molar value.

What follows are compounds tested against T1, Kir3.1/3.4 (Rattus norvegicus, UniProt P48548+P63251) (assay: Kir3.1/3.4 Electrophysiology Method (manual whole-cell patch clamp)). Conditions: Electrophysiology Method (TABLE 1).
T1 construct: expressed in transfected cells
T1 sequence (P63251 1-501): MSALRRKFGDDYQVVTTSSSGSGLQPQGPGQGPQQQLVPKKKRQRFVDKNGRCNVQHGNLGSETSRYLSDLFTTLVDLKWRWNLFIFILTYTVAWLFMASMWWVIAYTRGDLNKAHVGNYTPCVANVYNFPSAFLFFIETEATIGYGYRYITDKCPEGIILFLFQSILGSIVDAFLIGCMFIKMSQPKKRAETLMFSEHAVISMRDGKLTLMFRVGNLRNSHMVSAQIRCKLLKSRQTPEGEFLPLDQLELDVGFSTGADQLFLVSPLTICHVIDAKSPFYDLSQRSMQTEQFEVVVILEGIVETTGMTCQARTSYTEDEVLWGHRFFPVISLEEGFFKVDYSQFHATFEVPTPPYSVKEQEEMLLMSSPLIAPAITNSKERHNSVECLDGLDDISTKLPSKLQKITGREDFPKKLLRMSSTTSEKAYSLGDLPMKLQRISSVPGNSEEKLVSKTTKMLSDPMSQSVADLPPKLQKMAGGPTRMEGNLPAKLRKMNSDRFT
T1 sequence (P48548 1-419): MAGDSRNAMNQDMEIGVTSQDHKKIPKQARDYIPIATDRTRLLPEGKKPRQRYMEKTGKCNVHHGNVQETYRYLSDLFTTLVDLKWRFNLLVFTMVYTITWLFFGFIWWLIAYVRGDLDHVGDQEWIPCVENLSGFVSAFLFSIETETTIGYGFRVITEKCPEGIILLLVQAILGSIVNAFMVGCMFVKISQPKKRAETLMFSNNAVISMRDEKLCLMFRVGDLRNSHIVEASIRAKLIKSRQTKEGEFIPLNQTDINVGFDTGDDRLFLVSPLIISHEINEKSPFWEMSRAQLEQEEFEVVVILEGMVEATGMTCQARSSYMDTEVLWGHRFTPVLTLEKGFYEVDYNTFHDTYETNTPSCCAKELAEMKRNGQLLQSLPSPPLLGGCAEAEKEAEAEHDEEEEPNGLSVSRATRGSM
Assay type: cell-based
Experimental: Compound activity against the recombinant G-protein activated inward rectifier current encoded by the heterotetramer Kir3.1/3.4 was assessed using manual whole-cell patch technique. The heterotetramer forms the pore-forming channel that conducts the acetylcholine/adenosine-activated potassium current in the heart.
For whole-cell patch-clamp studies, cells (Human Embryonic Kidney 293 stably transfected with rat Kir3.1/3.4) were seeded onto glass coverslips before recordings were made. Cells were seeded in sterile 30 mm Petri dishes at a density to enable isolated cells to be selected for patch clamp experiments. The dishes were stored in a humidified, gassed (5% CO2) incubator at 37° C. until use.
Whole-cell patch-clamp recordings of membrane currents were made following gigaohm seal formation between the patch electrode and the cell using HEKA EPC-9/10 amplifiers controlled by Pulse Software (Ver8.5x/8.6×/8.7×, HEKA, Germany). Coverslips seeded with cells were placed in a recording chamber mounted on the stage of an inverted microscope. During the experiment, the cell of interest was continuously superfused with bather solution delivered via a cannula placed in close proximity to the cell to enable control of the extracellular solution environment. Only those cells with a current <−500 pA (current at −140 mV) were used for experiments. During experiments, series resistance was compensated by a minimum of 70%.
Electrophysiology voltage-step protocols and analysis of data were performed as follows. Data was sampled at 5 kHz, and filtered with a −3 dB bandwidth of 2.5 kHz. Cells were held at a voltage of −60 mV. Currents were evoked by a depolarising voltage step to +60 mV (100 ms) before a ramp-repolarisation (0.4 V·s^−1) to −140 mV (100 ms) before returning to −60 mV. The command waveform was repeatedly applied every 10 s throughout the experiment. Mean currents during 1-99% of the time at −140 mV were analysed using Pulsefit software (v8.x, HEKA, Germany). The voltage protocol was repeatedly applied to achieve a stable current baseline in bather before the test substance was superfused via the cannula in close proximity to the cell under investigation. The test substance was allowed to equilibrate during which time voltage protocol was repeatedly applied and recorded. On reaching steady-state inhibition, the cell was superfused with an identical bather solution containing zero external potassium chloride (replaced by equimolar NaCl). The identical current measurement was made in the absence of potassium to assess the passive leak at −140 mV. The leak current was subtracted from the control and steady-state drug current values. The percentage inhibition of the leak-subtracted current in the presence of test substance was calculated relative to the control leak-subtracted pre-drug value. Internal patch-pipette solution contained in mM: 110 KCl, 20 NaCl, 0.9 GTPγS, 5 Mg-ATP, 5 EGTA, 10 HEPES, pH7.2 corrected with KOH. The external superfusate composition in mM was: 150 (or 160) NaCl, 10 (or 0) KCl, 3 CaCl2, 1 MgCl, 10 HEPES, pH 7.4 corrected with NaOH.

Q: COCCN(CCOC)CC1CCN(c2ncnc3scc(-c4ccccc4)c23)CC1 [Example 53, 2-methoxy-N-(2-methoxyethyl)-N-[[1-(5-phenylthieno[2,3-d]pyrimidin-4-yl)-4-piperidyl]methyl]ethanamine] was tested. Which pIC50 did it give?
A: > 6.30

Q: With OCC1(NCC2CCN(c3ncnc4scc(-c5ccccc5)c34)CC2)CCCC1 [Example 54, [1-[[1-(5-phenylthieno[2,3-d]pyrimidin-4-yl)-4-piperidyl]methylamino]cyclopentyl]methanol] as the compound, how does the pIC50 read?
A: > 6.30

Q: With OC1CCCN(CC2CCN(c3ncnc4scc(-c5ccccc5)c34)CC2)C1 (stereo not drawn) [Example 55, 1-[[1-(5-phenylthieno[2,3-d]pyrimidin-4-yl)-4-piperidyl]methyl]piperidin-3-ol] as the compound, how does the pIC50 read?
A: 5.52 to 6.30

Q: c1ccc(-c2csc3ncnc(N4CCC(CN5CCOC(c6ccccc6)C5)CC4)c23)cc1 (stereo not drawn) [Example 56, 2-phenyl-4-[[1-(5-phenylthieno[2,3-d]pyrimidin-4-yl)-4-piperidyl]methyl]morpholine] was tested. Which pIC50 did it give?
A: > 6.30

Q: OCC(Cc1ccccc1)NCC1CCN(c2ncnc3scc(-c4ccccc4)c23)CC1 (stereo not drawn) [Example 57, 3-phenyl-2-[[1-(5-phenylthieno[2,3-d]pyrimidin-4-yl)-4-piperidyl]methylamino]propan-1-ol] was tested. Which pIC50 did it give?
A: > 6.30

Q: How did the pIC50 turn out when CN1CCCC1CCNCC1CCN(c2ncnc3scc(-c4ccccc4)c23)CC1 (stereo not drawn) [Example 58, 2-(1-methylpyrrolidin-2-yl)-N—[[1-(5-phenylthieno[2,3-d]pyrimidin-4-yl)-4-piperidyl]methyl]ethanamine] was run?
A: > 6.30

Q: With CC(C)(CNCC1CCN(c2ncnc3scc(-c4ccccc4)c23)CC1)N1CCOCC1 [Example 59, 2-methyl-2-morpholino-N-[[1-(5-phenylthieno[2,3-d]pyrimidin-4-yl)-4-piperidyl]methyl]propan-1-amine] as the compound, how does the pIC50 read?
A: > 6.30

Q: How did the pIC50 turn out when CN(C)C1CCCN(CC2CCN(c3ncnc4scc(-c5ccccc5)c34)CC2)C1 (stereo not drawn) [Example 60, N,N-dimethyl-1-[[1-(5-phenylthieno[2,3-d]pyrimidin-4-yl)-4-piperidyl]methyl]piperidin-3-amine] was run?
A: > 6.30

Q: How did the pIC50 turn out when c1ccc(-c2csc3ncnc(N4CCC(CNCc5ccco5)CC4)c23)cc1 [Example 61, 1-(2-furyl)-N-[[1-(5-phenylthieno[2,3-d]pyrimidin-4-yl)-4-piperidyl]methyl]methanamine] was run?
A: > 6.30

Q: CC(C)N(CCNCC1CCN(c2ncnc3scc(-c4ccccc4)c23)CC1)C(C)C [Example 62, N′,N′-diisopropyl-N-[[1-(5-phenylthieno[2,3-d]pyrimidin-4-yl)-4-piperidyl]methyl]ethane-1,2-diamine] was tested. Which pIC50 did it give?
A: > 6.30

Q: NCCNCC1CCN(c2ncnc3scc(-c4ccccc4)c23)CC1 [Example 63, N′-[[1-(5-phenylthieno[2,3-d]pyrimidin-4-yl)-4-piperidyl]methyl]ethane-1,2-diamine] was tested. Which pIC50 did it give?
A: > 6.30

Q: c1ccc(-c2csc3ncnc(N4CCC(CNC5CCC5)CC4)c23)cc1 [Example 64, N-[[1-(5-phenylthieno[2,3-d]pyrimidin-4-yl)-4-piperidyl]methyl]cyclobutanamine] was tested. Which pIC50 did it give?
A: > 6.30

Q: How did the pIC50 turn out when OCC1CCCN1CC1CCN(c2ncnc3scc(-c4ccccc4)c23)CC1 (stereo not drawn) [Example 65, [1-[[1-(5-phenylthieno[2,3-d]pyrimidin-4-yl)-4-piperidyl]methyl]pyrrolidin-2-yl]methanol] was run?
A: > 6.30

Q: c1ccc(-c2csc3ncnc(N4CCC(CNCc5ccccn5)CC4)c23)cc1 [Example 66, N-[[1-(5-phenylthieno[2,3-d]pyrimidin-4-yl)-4-piperidyl]methyl]-1-(2-pyridyl)methanamine] was tested. Which pIC50 did it give?
A: > 6.30

Q: O[C@H]1CN(CC2CCN(c3ncnc4scc(-c5ccccc5)c34)CC2)C[C@@H]1N1CCCC1 [Example 67, (3S,4S)-1-[[1-(5-phenylthieno[2,3-d]pyrimidin-4-yl)-4-piperidyl]methyl]-4-pyrrolidin-1-yl-pyrrolidin-3-ol] was tested. Which pIC50 did it give?
A: > 6.30

Q: With COC1CCN(CC2CCN(c3ncnc4scc(-c5ccccc5)c34)CC2)C1 (stereo not drawn) [Example 68, 4-[4-[(3-methoxypyrrolidin-1-yl)methyl]-1-piperidyl]-5-phenyl-thieno[2,3-d]pyrimidine] as the compound, how does the pIC50 read?
A: > 6.30

Q: How did the pIC50 turn out when c1ccc(-c2csc3ncnc(N4CCC(CNCc5cccs5)CC4)c23)cc1 [Example 69, N-[[1-(5-phenylthieno[2,3-d]pyrimidin-4-yl)-4-piperidyl]methyl]-1-(2-thienyl)methanamine] was run?
A: > 6.30

Q: How did the pIC50 turn out when Fc1ccc(C2CCN(CC3CCN(c4ncnc5scc(-c6ccccc6)c45)CC3)C2)cc1 (stereo not drawn) [Example 70, 4-[4-[[3-(4-fluorophenyl)pyrrolidin-1-yl]methyl]-1-piperidyl]-5-phenyl-thieno[2,3-d]pyrimidine] was run?
A: > 6.30

Q: CN(C)CCN(C)CC1CCN(c2ncnc3scc(-c4ccccc4)c23)CC1 [Example 71, N,N,N′-trimethyl-N′-[[1-(5-phenylthieno[2,3-d]pyrimidin-4-yl)-4-piperidyl]methyl]ethane-1,2-diamine] was tested. Which pIC50 did it give?
A: > 6.30

Q: How did the pIC50 turn out when CN(C)CCCN(C)CC1CCN(c2ncnc3scc(-c4ccccc4)c23)CC1 [Example 72, N,N,N′-trimethyl-N′-[[1-(5-phenylthieno[2,3-d]pyrimidin-4-yl)-4-piperidyl]methyl]propane-1,3-diamine] was run?
A: > 6.30

Q: With c1ccc(-c2csc3ncnc(N4CCC(CN5CCC5)CC4)c23)cc1 [Example 73, 4-[4-(azetidin-1-ylmethyl)-1-piperidyl]-5-phenyl-thieno[2,3-d]pyrimidine] as the compound, how does the pIC50 read?
A: 5.52 to 6.30

Q: With c1ccc(-c2csc3ncnc(N4CCC(CNC5CC5)CC4)c23)cc1 [Example 74, N-[[1-(5-phenylthieno[2,3-d]pyrimidin-4-yl)-4-piperidyl]methyl]cyclopropanamine] as the compound, how does the pIC50 read?
A: > 6.30

Q: With CN(C)C1CCN(CC2CCN(c3ncnc4scc(-c5ccccc5)c34)CC2)CC1 [Example 75, N,N-dimethyl-1-[[1-(5-phenylthieno[2,3-d]pyrimidin-4-yl)-4-piperidyl]methyl]piperidin-4-amine] as the compound, how does the pIC50 read?
A: > 6.30

Q: With c1ccc(-c2csc3ncnc(N4CCC(CN5CCC(N6CCCC6)C5)CC4)c23)cc1 (stereo not drawn) [Example 76, 5-phenyl-4-[4-[(3-pyrrolidin-1-ylpyrrolidin-1-yl)methyl]-1-piperidyl]thieno[2,3-d]pyrimidine] as the compound, how does the pIC50 read?
A: > 6.30

Q: How did the pIC50 turn out when Fc1ccc(-c2csc3ncnc(N4CCC(CNC5CC5)CC4)c23)cc1 [Example 77, N-[[1-[5-(4-fluorophenyl)thieno[2,3-d]pyrimidin-4-yl]-4-piperidyl]methyl]cyclopropanamine] was run?
A: 5.52 to 6.30

Q: With Fc1ccc(-c2csc3ncnc(N4CCC(CNC5CCC5)CC4)c23)cc1 [Example 78, N-[[1-[5-(4-fluorophenyl)thieno[2,3-d]pyrimidin-4-yl]-4-piperidyl]methyl]cyclobutanamine] as the compound, how does the pIC50 read?
A: 5.52 to 6.30

Q: With CN(C)C1CCCN(CC2CCN(c3ncnc4scc(-c5ccc(F)cc5)c34)CC2)C1 (stereo not drawn) [Example 79, 1-[[1-[5-(4-fluorophenyl)thieno[2,3-d]pyrimidin-4-yl]-4-piperidyl]methyl]-N,N-dimethyl-piperidin-3-amine] as the compound, how does the pIC50 read?
A: > 6.30
